Data reported in publication PMC12675575, “A BRET biosensor for measuring uncompetitive engagement of PRMT5 complexes in cells” (Nature Communications, 2025).
pEC50: −log10 of the molar value. Several values for one entry are separate records, joined by “and”; a condition that tells them apart may be missing. Equal values may be shown once.

Columns and labels:
NLuc-PRMT5 = NLuc-PRMT5 (Homo sapiens, UniProt O14744); experiment: SAM titration against CBH-002 in HEK293 cell lysate (linear range of SAM detection); type: binding; design: host or cells: HEK293 (live cells; digitonin lysate for the SAM titration); conditions: for pEC50: Figure S3B; for BRET signal, CBH-002 titration (Figure S3A): Log[CBH-002]
Protocol: To determine the linear range of SAM detection, HEK293 cells expressing NLuc-PRMT5 were lysed by addition of a 10x digitonin solution (Sigma), 500 µg/mL in Opti-MEM) and treated with a 1 mM, 4-fold, 11 pt dose-response series of SAM (Sigma) and a 1 µM 2-fold, 8 pt dose-response series of CBH-002. Lysate was incubated at RT for 30 min prior to reading BRET. Data was normalized using Eq. (2) above, with BRETMIN = BRET signal at lowest [CBH-002] + 0 µM SAM, and BRETMAX = BRET signal at 1 µM CBH-002 + 1 mM SAM. Data were fit using Eq. (3), and CBH-002 EC50 was plotted against [SAM] to determine the linear range of detection.

RIPK2 = target: T1, RIPK2 (Homo sapiens, UniProt O43353); experiment: CBH-002 affinity curve, HEK293, RIPK2-NL fusion (cytosolic control); type: cell-based; design: BRET, CBH-002 + DMSO / BRET, CBH-002 + GSK3326595: unit not given here; conditions: for BRET, CBH-002 + DMSO / BRET, CBH-002 + GSK3326595: Figure S2E RIPK2-NL, log([CBH-002])
T1 construct: host or cells: HEK293
Protocol: HEK293 cells (ATCC) were cultured in DMEM (Thermo Fisher) + 10% (v/v) FBS (Seredigm), and HCT116 cells (Horizon Discovery, #PAR-034 and #R02-033) were cultured in McCoy’s 5A (Thermo Fisher) + 10% FBS, with incubation in a humidified, 37 °C/5% CO2 incubator. Cells were split 1–3 days prior to performing experiments and used at roughly 80% confluency. […] Cells were transfected according to the manufacturer’s protocol using FuGENE HD (Promega). NanoLuc fusion DNA was diluted into Transfection Carrier DNA (Promega) in Opti-MEM at a ratio of 1:9 (mass/mass), and FuGENE HD was added at a ratio of 1:3 (μg DNA:μL lipid). For experiments using WDR77, untagged WDR77 DNA (Promega) was used in place of Carrier DNA. Formed complexes were combined with cells resuspended to a density of 2 × 10^5 cells/mL in Opti-MEM + 1% FBS at a ratio of 1:20 (vol:vol). Cells were plated into a flask and incubated at 37 °C in a humidified 5% CO2 atmosphere for 18–24 h, before being lifted and seeded into 96-well non-binding surface-treated plates (Corning). Cells were seeded at a density of 2 × 10^5 cells/mL in Opti-MEM + 1% FBS in 100 μL (96-well). The BRET probe CBH-002 was prepared first as a 100× stock in 100% DMSO (Sigma) and then diluted to a 20× stock in NanoBRET Tracer Dilution buffer (Promega). Test compounds were prepared as 1000× stocks in 100% DMSO and diluted to 10× stocks in Opti-MEM to prepare working stocks. […] NanoBRET Complete 3x Substrate was prepared by combining Nano-Glo Substrate and Extracellular NanoLuc Inhibitor in Opti-MEM, according to the manufacturer’s protocol (Promega). NanoBRET Complete 3× Substrate was added to cells and plates were measured on either a PheraSTAR FSX equipped with 450 nm (donor) and 610 nm (acceptor) filters, or a GloMAX Discover equipped with 450/8 nm BP (donor) and 600 nm LP (acceptor) filters, using a 0.3 s integration time.
EC50 values were obtained by fitting the BRET probe and compound affinity curves to a sigmoidal four-parameter fit model in Graphpad Prism:1 Y=Ymin+Ymax−Ymin/1+10^LogEC50−Xh where h is the Hill Slope.

Sequence of NLuc-PRMT5 (O14744 whole entry): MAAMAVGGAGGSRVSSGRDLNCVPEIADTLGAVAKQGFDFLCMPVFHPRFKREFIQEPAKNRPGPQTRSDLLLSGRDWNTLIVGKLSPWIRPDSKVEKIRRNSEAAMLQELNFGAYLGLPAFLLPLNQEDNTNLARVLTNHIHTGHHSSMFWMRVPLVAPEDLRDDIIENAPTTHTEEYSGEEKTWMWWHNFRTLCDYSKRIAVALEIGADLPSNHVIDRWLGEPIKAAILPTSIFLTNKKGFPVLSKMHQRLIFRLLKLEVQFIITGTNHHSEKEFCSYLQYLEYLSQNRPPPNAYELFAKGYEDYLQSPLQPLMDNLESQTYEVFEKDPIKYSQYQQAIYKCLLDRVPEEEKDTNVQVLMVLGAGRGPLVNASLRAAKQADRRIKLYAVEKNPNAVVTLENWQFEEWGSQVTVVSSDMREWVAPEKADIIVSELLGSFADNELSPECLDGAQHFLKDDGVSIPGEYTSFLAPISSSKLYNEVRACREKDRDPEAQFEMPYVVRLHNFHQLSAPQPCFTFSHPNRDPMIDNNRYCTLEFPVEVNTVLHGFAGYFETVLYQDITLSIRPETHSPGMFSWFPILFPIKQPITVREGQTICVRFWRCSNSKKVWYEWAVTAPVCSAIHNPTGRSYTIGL
Sequence of NLuc-PRMT5 (Q9BQA1 whole entry partner): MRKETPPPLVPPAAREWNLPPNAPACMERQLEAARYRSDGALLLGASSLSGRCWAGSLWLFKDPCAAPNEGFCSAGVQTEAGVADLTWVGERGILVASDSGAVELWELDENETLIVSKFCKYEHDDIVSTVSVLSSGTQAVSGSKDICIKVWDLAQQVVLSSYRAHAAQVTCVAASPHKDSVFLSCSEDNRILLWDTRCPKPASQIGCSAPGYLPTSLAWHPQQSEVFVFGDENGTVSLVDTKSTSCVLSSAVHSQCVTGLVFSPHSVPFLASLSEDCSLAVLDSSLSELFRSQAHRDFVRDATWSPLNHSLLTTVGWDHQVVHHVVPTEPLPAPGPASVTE
T1 sequence (O43353 whole entry, the tested form may be a part): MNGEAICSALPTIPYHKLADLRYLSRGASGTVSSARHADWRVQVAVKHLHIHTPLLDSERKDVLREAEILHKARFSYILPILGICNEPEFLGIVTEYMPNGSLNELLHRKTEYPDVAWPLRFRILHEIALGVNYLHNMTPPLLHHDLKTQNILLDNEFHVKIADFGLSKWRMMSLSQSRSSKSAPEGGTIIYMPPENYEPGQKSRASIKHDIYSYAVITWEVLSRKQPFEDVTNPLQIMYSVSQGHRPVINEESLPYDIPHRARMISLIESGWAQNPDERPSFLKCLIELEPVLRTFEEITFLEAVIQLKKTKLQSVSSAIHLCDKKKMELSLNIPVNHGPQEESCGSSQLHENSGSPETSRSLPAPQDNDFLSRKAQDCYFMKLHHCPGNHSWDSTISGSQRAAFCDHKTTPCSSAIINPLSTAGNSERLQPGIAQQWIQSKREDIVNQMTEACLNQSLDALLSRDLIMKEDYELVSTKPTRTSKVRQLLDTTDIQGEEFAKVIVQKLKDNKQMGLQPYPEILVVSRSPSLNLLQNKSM

O=C(CCc1ccc2n1[B-](F)(F)[N+]1=C(c3ccc[nH]3)C=CC1=C2)NCCCCC(=O)N1CCC(Nc2cc(C(=O)NC[C@H](O)CN3CCc4ccccc4C3)ncn2)CC1 [CBH-002]
pEC50 (NLuc-PRMT5; CBH-002 EC50 at [SAM] 0 uM): 5.97
pEC50 (NLuc-PRMT5; CBH-002 EC50 at [SAM] 0.001 uM): 5.92
pEC50 (NLuc-PRMT5; CBH-002 EC50 at [SAM] 0.004 uM): 6.14
pEC50 (NLuc-PRMT5; CBH-002 EC50 at [SAM] 0.06 uM): 6.63
pEC50 (NLuc-PRMT5; CBH-002 EC50 at [SAM] 250 uM): 8.00
pEC50 (NLuc-PRMT5; CBH-002 EC50 at [SAM] 1000 uM): 8.00
BRET signal, CBH-002 titration (Figure S3A) (NLuc-PRMT5; uM 0.00, [SAM] 0 uM): 59.75 and 46.60 and 39.12
BRET signal, CBH-002 titration (Figure S3A) (NLuc-PRMT5; uM 0.00, [SAM] 0.001 uM): 52.48 and 47.57 and 38.98
BRET signal, CBH-002 titration (Figure S3A) (NLuc-PRMT5; uM 0.00, [SAM] 0.004 uM): 78.50 and 49.28 and 41.20
BRET signal, CBH-002 titration (Figure S3A) (NLuc-PRMT5; uM 0.00, [SAM] 0.06 uM): 102.12 and 63.12 and 56.12
BRET signal, CBH-002 titration (Figure S3A) (NLuc-PRMT5; uM 0.00, [SAM] 250 uM): 116.71 and 100.65 and 98.69
BRET signal, CBH-002 titration (Figure S3A) (NLuc-PRMT5; uM 0.00, [SAM] 1000 uM): 100.00
BRET signal, CBH-002 titration (Figure S3A) (NLuc-PRMT5; uM -0.60, [SAM] 0 uM): 35.92 and 26.69 and 20.78
BRET signal, CBH-002 titration (Figure S3A) (NLuc-PRMT5; uM -0.60, [SAM] 0.001 uM): 38.65 and 26.89 and 21.61
BRET signal, CBH-002 titration (Figure S3A) (NLuc-PRMT5; uM -0.60, [SAM] 0.004 uM): 42.58 and 27.46 and 22.13
BRET signal, CBH-002 titration (Figure S3A) (NLuc-PRMT5; uM -0.60, [SAM] 250 uM): 110.40 and 94.49 and 89.50
BRET signal, CBH-002 titration (Figure S3A) (NLuc-PRMT5; uM -0.60, [SAM] 1000 uM): 106.63 and 91.94 and 90.40
BRET signal, CBH-002 titration (Figure S3A) (NLuc-PRMT5; uM -1.20, [SAM] 0 uM): 18.29 and 13.11 and 9.32
BRET signal, CBH-002 titration (Figure S3A) (NLuc-PRMT5; uM -1.20, [SAM] 250 uM): 100.06 and 80.70 and 74.62
BRET signal, CBH-002 titration (Figure S3A) (NLuc-PRMT5; uM -1.20, [SAM] 1000 uM): 101.04 and 80.00 and 77.33
BRET signal, CBH-002 titration (Figure S3A) (NLuc-PRMT5; uM -1.81, [SAM] 250 uM): 80.32 and 48.77 and 48.32
BRET signal, CBH-002 titration (Figure S3A) (NLuc-PRMT5; uM -1.81, [SAM] 1000 uM): 90.24 and 46.55 and 49.90
BRET, CBH-002 + DMSO (RIPK2; uM 0.04576): 1.852 and 1.939 and 2.142
BRET, CBH-002 + GSK3326595 (RIPK2; uM 0.04576): 1.842 and 1.813 and 1.9392
BRET, CBH-002 + DMSO (RIPK2; uM 0.52288): 5.1141 and 4.646 and 5.258
BRET, CBH-002 + GSK3326595 (RIPK2; uM 0.52288): 4.515 and 4.266 and 4.4734
BRET, CBH-002 + DMSO (RIPK2; uM 1): 11.7522 and 11.9286 and 12.3306
BRET, CBH-002 + GSK3326595 (RIPK2; uM 1): 11.5342 and 11.3369 and 11.377
BRET, CBH-002 + DMSO (RIPK2; uM -0.43136): 0.8543 and 0.8172 and 0.8282
BRET, CBH-002 + GSK3326595 (RIPK2; uM -0.43136): 0.5912 and 0.5546 and 0.9723
CBH-002 engagement at RIPK2 (RIPK2; HEK293, RIPK2-NL): did not show engagement
